Assay results as given in publication PMC7545214, “Structural basis for energy transfer in a huge diatom PSI-FCPI supercomplex” (Nature Communications, 2020).

Legend:
[1] = molecular target: T1, PSI core of the PSI-FCPI supercomplex (Chaetoceros neogracilis, UniProt A0A6J4B0E7+A0A6J4B109); assay: cryo-EM structure, […] Å; assay type: binding; details: two molecules bound to PsaA/B/R
T1 construct: gene psaA; native purification from thylakoids with DDM; PsaS modelled as polyalanine; with Photosystem I iron-sulfur center; Photosystem I reaction center subunit II; Photosystem I reaction center subunit IV; Photosystem I reaction center subunit III; Photosystem I reaction center subunit VIII; Photosystem I reaction center subunit IX; Photosystem I reaction center subunit XI; Photosystem I reaction center subunit XII; Photosystem I subunit PsaR; Photosystem I subunit PsaS
T1 sequence (A0A6J4B0E7 1-733, one chain of several): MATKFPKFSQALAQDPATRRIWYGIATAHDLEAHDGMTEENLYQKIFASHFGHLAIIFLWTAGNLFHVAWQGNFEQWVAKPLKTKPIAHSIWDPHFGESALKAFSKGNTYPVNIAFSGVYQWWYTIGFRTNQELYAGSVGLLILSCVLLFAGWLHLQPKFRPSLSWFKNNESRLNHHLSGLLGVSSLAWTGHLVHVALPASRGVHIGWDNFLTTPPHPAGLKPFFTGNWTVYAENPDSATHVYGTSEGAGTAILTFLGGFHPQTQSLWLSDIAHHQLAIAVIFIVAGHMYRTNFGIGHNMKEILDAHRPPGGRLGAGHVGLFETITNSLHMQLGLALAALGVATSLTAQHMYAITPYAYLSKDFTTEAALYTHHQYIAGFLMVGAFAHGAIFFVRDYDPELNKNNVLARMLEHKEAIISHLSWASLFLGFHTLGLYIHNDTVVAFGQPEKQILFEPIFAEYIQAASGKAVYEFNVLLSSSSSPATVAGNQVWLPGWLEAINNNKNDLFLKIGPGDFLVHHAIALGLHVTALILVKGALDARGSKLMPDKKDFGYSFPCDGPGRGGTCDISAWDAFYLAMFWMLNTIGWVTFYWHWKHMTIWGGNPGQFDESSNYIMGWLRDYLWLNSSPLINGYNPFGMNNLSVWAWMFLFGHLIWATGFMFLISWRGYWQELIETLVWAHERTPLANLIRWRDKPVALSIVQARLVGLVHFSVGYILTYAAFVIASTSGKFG

PsaR = molecular target: T2, PsaR (Chaetoceros neogracilis, UniProt A0A6J4B118); assay: cryo-EM structure, […] Å; assay type: binding; details: one molecule
T2 construct: gene psa28; native, within the PSI-FCPI supercomplex; 89 residues, two transmembrane helices; next to PsaB and FCPI-8/9/10
T2 sequence (A0A6J4B118 51-139): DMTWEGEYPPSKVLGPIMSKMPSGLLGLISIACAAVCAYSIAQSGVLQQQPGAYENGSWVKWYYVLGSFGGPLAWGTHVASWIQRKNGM

cryo-EM structure, 2.38 Å (PsaR) | SMILES | cryo-EM structure, 2.38 Å ([1]; chain of each in supplement) | cryo-EM structure, 2.38 Å ([1]; one of them on PsaR)
 | CC1=C(C#C/C(C)=C/C=C/C(C)=C/C=C/C=C(C)/C=C/C=C(C)/C=C/[C@@]23O[C@]2(C)C[C@@H](O)CC3(C)C)C(C)(C)C[C@H](O)C1 [diadinoxanthin] | two Ddx and two Fx were identified in the diatom PSI core | 
binds one Chl a and one Fx | CC(=O)O[C@H]1CC(C)(C)C(=C=C/C(C)=C/C=C/C(C)=C/C=C/C=C(C)/C=C/C=C(\C)C(=O)C[C@@]23O[C@]2(C)C[C@@H](O)CC3(C)C)[C@](C)(O)C1 [fucoxanthin] |  | two Ddx and two Fx were identified in the diatom PSI core
